Experimental data reported in patent US7781444B2, “Pharmaceutical composition for treating fecal incontinence and anal itch” (S.L.A. Pharma AG, priority 1996, dated 2010).

Tests used:
[1] = test system: minor incontinence after ileoanal anastomosis; settings: Surgery 1990; 107: p 311-315; cited from earlier work
[2] = test system: internal anal pressure, patients with incontinence or constipation; test: NΩ-Nitro-L-arginine ointment in and around the anal canal, manometry before and after application; assay type: in vivo, human; settings: 1% ointment, twelve patients
Method: A 1% ointment was prepared by mixing […] of NΩ-Nitro-L-arginine (obtained from Fluka—part of the Sigma group) in 19.8 g of unguentum merk base.
The ointment was then applied in and around the anal canal of twelve patients and the interanal pressure measured by manometry (as discussed previously) before and shortly after application of the ointment.

[3] = test system: maximum resting anal pressure, healthy volunteers; test: Healthy volunteer group, intraanal 10% phenylephrine, manometry; settings: 0.5 ml 10% (50 mg) intraanal
anal resting pressure = test: Phenylephrine ointment applied to anal margin, anal manometry; assay type: in vivo, human; settings: ointment in yellow soft paraffin, up to approximately 500 mg 10% ointment (50 mg of phenylephrine)
Method: Preparations of commercially available ophthalmic 10% phenylephrine hydrochloride (Minims) solution were administered intraanally with the subject in the left lateral position.

[4] = test system: maximum resting anal pressure, single healthy volunteer; test: Dose response study in single volunteer, intraanal phenylephrine solution, manometry
[5] = test system: maximum resting anal pressure, patients with passive faecal incontinence; test: Patient group with passive faecal incontinence, intraanal 10% phenylephrine, manometry
[6] = test system: resting anal sphincter pressure, human volunteers; test: Topical phenylephrine gel dose ranging in volunteers: resting anal sphincter pressure and anodermal blood flow; assay type: in vivo; settings: for rise in mean resting anal sphincter pressure (MRP): topical, twelve volunteers
Method: A composition of base gel had the following composition: carmellose sodium 6 g, polyethylene glycol 30 ml, methylhydroxybenzoate 150 mg, propylhydroxybenzoate 15 mg, made up to volume with distilled water (pH4).
Various amounts of phenylephrine was added at 5%, 10%, 20% and 30% w/w to form various compositions for dose ranging studies (FIG. 2).
Twelve human volunteers aged 21 to 53 (mean 35) were studied on 4 occasions. Measurements of resting anal sphincter pressure and anodermal blood flow (using a laser doppler flowmeter) were taken before and after topical application of increasing concentrations of phenylephrine gel according to example 3 (supplied by Slaco Pharma (UK) Ltd) to the anus. Readings were taken through the day after a single application in order to determine the duration of effect.

[7] = test system: patients with ileo-anal pouch and fecal incontinence; test: Randomised placebo controlled cross over trial of 10% phenylephrine cream in patients with ileo-anal pouch; assay type: in vivo, human
Method: A prospective randomised placebo controlled cross over trial was undertaken to evaluate the use of phenylephrine 10% topical cream (according to examples 2a and 3) for treatment of fecal incontinence in patients with ilco-anal pouch.
10 Patients are mainly troubled by nocturnal incontinence only, and 2 have both daytime and nocturnal incontinence.
Of the 10 completed studies, there were 7 women and 3 men, age range (34-67). Anorectal manometry was performed and laser doppler fowmetry on all patients. Incontinence score was determined. All these outcome measures were repeated after treatment with both trial creams (phenylephrine and placebo).

[8] = test system: patients with idiopathic passive fecal incontinence; test: Randomised placebo controlled cross over trial of 10% phenylephrine cream in idiopathic passive fecal incontinence; assay type: in vivo, human
Method: A prospective randomised placebo controlled cross over trial was undertaken to evaluate the use of 10% phenylephrine topical cream (according to examples 3 and 4) for treatment of idiopathic passive fecal incontinence.
30 Patients completed the study. All patients were assessed by endoanal ultrasound as well as anorectal physiology (to determine maximum resting anal pressure) and laser doppler flowmetry prior to treatment. The latter two measurements are repeated after a 3 week trial of the active agent (phenylephrine 10%) and placebo ‘Incontinence scores’ are determined before and after each treatment.

[9] = topical 10% phenylephrine cream

For `CCCC(CCC)C(=O)[O-].[Na+]` [sodium valproate], the “treatment of minor incontinence after ileoanal anastomosis” value [1] is given as “useful”.
In the case of `NC(=NCCC[C@H](N)C(=O)O)N[N+](=O)[O-]` [NΩ-Nitro-L-arginine], the “effect on resting internal anal sphincter pressure (in words)” value [2] was “increase the resting internal an1 sphincter pressure”.
With `CNC[C@H](O)c1cccc(O)c1` [phenylephrine] the “maximum resting pressure after application (median)” value ([3]; ten healthy volunteers, pre median 110, post range 120-210, 17.5 KPa, p<0.05) was 180 cm H2O, the “time increased pressure was maintained (duration of the recording, median)” value ([3]; range 14-31 minutes) was no less than 23 min and the “effect of ointment applied to the anal margin” value (anal resting pressure) was “no effect”. For the same compound, the “increase in maximum resting pressure” value ([4]; 0.5 ml 0.1% (0.5 mg) intraanal) was “no significant increase”, the “increase in maximum resting pressure” value ([4]; 0.5 ml 0.5% (2.5 mg) intraanal) was “no significant increase” and the “increase in maximum resting pressure” value ([4]; 0.5 ml 1% (5 mg) intraanal) was “no significant increase”. The “increase in maximum resting pressure” value ([4]; 0.5 ml 5% (25 mg) intraanal) was “no significant increase”, the “resting pressure after instillation” value ([4]; 0.5 ml 10% (50 mg) into the anal canal, from 120 cm H2O before (12-21 KPa)) was 210 cm H2O and the “time over which increase in resting anal pressure was evident (continuous recording)” value ([4]; 0.5 ml 10% (50 mg) intraanal) was no less than 25 min. The “resting anal pressure 13 hours later” value ([4]; 0.5 ml 10% (50 mg) intraanal, manometry repeated at 13 hours) was “returned to pre-treatment level”, the “median maximum resting pressure after instillation” value ([5]; 0.5 ml 10% (50 mg) intraanal, ten patients, pre median 25, post range 20-80, 5.5 KPa, p=0.39) was 55 cm H2O and the “patients demonstrating a rise in anal pressure” value ([5]; of ten patients, two showed a fall, one no change) was “Seven”. The “rise in mean resting anal sphincter pressure (MRP)” value ([6]; 5% phenylephrine gel, p 0.04) was 6%, the “duration of action of a single application (median)” value ([6]; 10% phenylephrine gel) was 7 (range 6 to 8) hours and the “rise in mean resting anal sphincter pressure (MRP)” value ([6]; 10% phenylephrine gel, versus pre-treatment) was 33%. For the same compound, the “post treatment MRP” value ([6]; 10% phenylephrine gel, pre-treatment 85±2, P<0.0001) was 127±12 cmH2O, the “response of MRP at concentrations higher than 10%” value ([6]; higher concentrations of phenylephrine gel (20%, 30% w/w)) was “no additional response” and the “changes in anodermal blood flow” value ([6]; laser doppler flowmeter, topical phenylephrine gel) was “No notable changes”. The “patients with significant improvement of symptoms” value ([7]; 6/10 patients, phenylephrine 10% compared to placebo) was 60%, the “improvement of incontinence scores (mean)” value ([7]; after phenylephrine 10%, 3% after placebo) was 45% and the “increase in mean resting anal sphincter pressure compared to baseline” value ([7]; in the improved patients, after phenylephrine 10%, -8% on placebo, p<0.005) was 29%. The “differences in anodermal blood flow” value ([7]; laser doppler flowmetry) was “No differences”, the “patients with objective improvement (anal sphincter pressure)” value ([7]; of the 7 improved patients) was 6 patients and the “patients with no improvement” value ([7]; phenylephrine 10% cream) was 3/10. For the same compound, the “mean subjective improvement in symptoms reported by patients” value ([7]; phenylephrine 10% cream, 14% after placebo, p<0.01) was 83%, the “improvement of incontinence score, one patient” value ([7]; single patient without measurable pressure increase) was 47% and the “subjective improvement, one patient” value ([7]; single patient, after phenylephrine compared to placebo) was 75%. For the same compound, the “anal sphincter pressure, one patient” value ([7]; single patient, phenylephrine 10% cream) was “no measurable increase”, the “patients with improvement of symptoms of incontinence (summary)” value [7, 9] was 7/10 and the “mean resting pressure post phenylephrine” value ([8]; 10% phenylephrine, from 62 pre, no significant change) was 58 cmH2O. For the same compound, the “incontinence score (mean) after treatment” value ([8]; 10% phenylephrine, improved from mean of 14) was 10, the “change in anodermal blood flow” value ([8]; laser doppler flowmetry, after 10% phenylephrine) was “no significant change” and the “patients with significant subjective improvement of symptoms” value ([8]; three of 30 patients, 10% cream for 3 weeks, versus baseline and placebo) was 10%. The “patients with subjective improvement of symptoms (summary)” value [8, 9] was 3/30.
